Earlier results, collected in patent publication US10064856B2, “Pharmaceutical compositions” (LOCL PHARMA, INC., priority 2008, dated 2018).

Settings: more than about 0.6 to 2.0 gm, typically more than about 0.6 gm

## O=S(=O)([O-])[O-].[Zn+2] [Zinc sulfate, zinc sulfate]
  amount ingested that can induce emesis: more than 0.6 gm
